From patent US7166618B2, “Nitrosated and nitrosylated cyclooxygenase-2 inhibitors, compositions and methods of use” (NitroMed, Inc., priority 1999, dated 2007) come the findings set out here.

The target in one assay is T1, ovine COX-1 (Ovis aries, UniProt P05979).
T1 sequence (P05979 25-600): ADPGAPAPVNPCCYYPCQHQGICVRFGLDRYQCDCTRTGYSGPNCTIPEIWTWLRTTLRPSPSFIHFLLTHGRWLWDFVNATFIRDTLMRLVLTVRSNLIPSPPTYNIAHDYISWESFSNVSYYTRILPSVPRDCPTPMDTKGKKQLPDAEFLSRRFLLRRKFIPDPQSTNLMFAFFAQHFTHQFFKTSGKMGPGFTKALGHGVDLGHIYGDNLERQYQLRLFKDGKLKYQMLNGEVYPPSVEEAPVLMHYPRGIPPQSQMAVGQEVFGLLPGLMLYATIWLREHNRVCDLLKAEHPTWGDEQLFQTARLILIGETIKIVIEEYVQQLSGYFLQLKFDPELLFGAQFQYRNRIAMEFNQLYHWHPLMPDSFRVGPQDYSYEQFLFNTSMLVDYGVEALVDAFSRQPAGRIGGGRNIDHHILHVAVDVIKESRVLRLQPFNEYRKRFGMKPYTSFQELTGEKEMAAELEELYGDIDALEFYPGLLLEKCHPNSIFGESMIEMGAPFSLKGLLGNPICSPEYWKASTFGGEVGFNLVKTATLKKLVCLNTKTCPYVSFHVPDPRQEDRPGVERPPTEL
Kind of assay: biochemical. The protocol:
(§1) The ovine COX-1 and COX-2 activities and the measurement of the prostaglandin products synthesized were performed using the COX Inhibitor Screening Assay (Cayman Chemical, Ann Arbor, Mich., which also contained the Prostaglandin Screening EIA Kit, used for prostaglandin quantification). The test compounds were dissolved at 50 times the highest final reaction concentration in DMSO or any other suitable solvent as stock solutions. These stock solutions were then diluted in the same solvent. Eight glass test tubes (13×100 mm) were placed in a 37° C. water bath. To each test tube was added 950 μL of reaction buffer (0.1 M Tris-HCl, pH 8.0, containing 5 mM EDTA, and 2 mM phenol), 10 μL of 100 µM heme solution, and 10 μL (5 units) of either ovine COX-1 or COX-2 and the resulting mixture was incubated with the enzyme for 2 minutes. Twenty μL of the solvent was added to one tube (100% initial activity or solvent control) and 20 μL of each dilution of the test compound was added to one tube each. Each tube was vortexed immediately after the addition. The enzyme was incubated with the inhibitor for 3.5 minutes at 37° C. The enzymatic reaction was then initiated by the addition of 10 μL of freshly prepared 10 mM arachidonic acid (neutralized with KOH), vortexed and then incubated for 2 minutes at 37° C. The reaction was terminated by the addition of 50 μL of 1 M HCl, vortexed and placed at room temperature. One hundred microliters of a saturated stannous chloride solution (50 mg/mL of 0.1 M HCl) was added and the reaction mixture was allowed to stand at room temperature for at least 5 minutes.
(§2) The prostaglandins (PG) produced in the reactions were assayed, after a 2,000-fold dilution, using the Prostaglandin Screening EIA Kit (Cayman Chemical, Ann Arbor, Mich.). The assay-contains an antibody with broad specificity for all the prostaglandin families (PGF, PGE, PGD, and thromboxane B-type) synthesized in the COX-1/COX 2 reactions. The synthesized prostaglandin competes with a PG-tagged acetylcholine esterase tracer for binding to the PG antibody. Binding of synthesized PG lowers the calorimetric development of the Ellman's Reagent (computed as % B/B0). The actual amount of synthesized PG was interpolated from a standard curve using known amounts of supplied prostaglandin E2 (PGE2) (PGE2 concentration vs. % B/B0). The data generated were the mean±standard deviation of triplicate wells in the EIA for a single reaction at a given inhibitor concentration.

In assay [1] the test system is carrageenan-induced rat paw edema. Kind of assay: Carrageenan-induced rat paw edema test. Particulars: rats dosed intragastrically, paw volume 3 hours after carrageenan. The class given is in vivo. The protocol: The carrageenan-induced rat paw edema test was used to measure antiinflammatory activity. The paw edema test was performed according to the method of Winter et al, Proc. Soc. Exp. Biol. Med. 111: 544–547, 1962. Male Sprague-Dawley rats (200–250 g) were fasted for 24 hours with water ad libitum. The rats were dosed intragastrically with test compounds in a volume of 5 mL/kg. One hour after dosing the paw volume was measured. Then each rat received a subplantar injection of 50 μl of 1% suspension of carrageenan. Three hours later, the paw volume was measured and compared with the initial volume measured […]. The increase in paw volume is presented as the mean±SEM for 5 rats per group. Data were analyzed by performing an ANOVA test followed by a Student-Keuls post hoc test.

The next assay addresses T2, ovine COX-2 (Ovis aries, UniProt P79208).
T2 sequence (P79208 17-603): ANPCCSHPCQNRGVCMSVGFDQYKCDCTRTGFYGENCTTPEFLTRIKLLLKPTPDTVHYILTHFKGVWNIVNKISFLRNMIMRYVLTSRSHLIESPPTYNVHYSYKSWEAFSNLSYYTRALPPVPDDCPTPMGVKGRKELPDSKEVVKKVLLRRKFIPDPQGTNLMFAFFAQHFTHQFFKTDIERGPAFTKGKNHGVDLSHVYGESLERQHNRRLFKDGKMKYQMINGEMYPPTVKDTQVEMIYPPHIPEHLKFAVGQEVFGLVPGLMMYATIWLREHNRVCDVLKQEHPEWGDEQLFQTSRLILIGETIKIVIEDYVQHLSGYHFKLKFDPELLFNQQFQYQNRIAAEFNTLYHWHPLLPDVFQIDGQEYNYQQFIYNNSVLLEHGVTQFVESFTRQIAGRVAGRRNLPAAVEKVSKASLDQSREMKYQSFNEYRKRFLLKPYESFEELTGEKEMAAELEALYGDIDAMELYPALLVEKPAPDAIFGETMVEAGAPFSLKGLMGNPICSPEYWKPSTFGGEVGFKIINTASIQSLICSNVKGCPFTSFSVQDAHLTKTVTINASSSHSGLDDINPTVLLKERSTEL
Kind of assay: biochemical. The class given is biochemical. The protocol:
as §1, §2

Bounds are passed on as bounds.

Turning to `NS(=O)(=O)c1ccc(-c2c(-c3ccccc3)noc2CO[N+](=O)[O-])cc1` [Example 2b, 4-(5-((Nitrooxy)methyl)-3-phenylisoxazol-4-yl)benzenesulfonamide], the inhibition at 100 µM against ovine COX-1 (Ovine COX-1 (footnote a), at 100 μM) stood at 0%. Besides, the IC50 at ovine COX-1 (ovine COX-1) was > 300 µM; against ovine COX-2, 1.2 µM. The “paw volume (antiinflammatory activity)” value in assay [1] is “reduced the paw volume”.
